The target in experiment [1] is T1, human muscarinic M1 receptor (Homo sapiens, UniProt P11229).
T1 sequence (P11229 1-460): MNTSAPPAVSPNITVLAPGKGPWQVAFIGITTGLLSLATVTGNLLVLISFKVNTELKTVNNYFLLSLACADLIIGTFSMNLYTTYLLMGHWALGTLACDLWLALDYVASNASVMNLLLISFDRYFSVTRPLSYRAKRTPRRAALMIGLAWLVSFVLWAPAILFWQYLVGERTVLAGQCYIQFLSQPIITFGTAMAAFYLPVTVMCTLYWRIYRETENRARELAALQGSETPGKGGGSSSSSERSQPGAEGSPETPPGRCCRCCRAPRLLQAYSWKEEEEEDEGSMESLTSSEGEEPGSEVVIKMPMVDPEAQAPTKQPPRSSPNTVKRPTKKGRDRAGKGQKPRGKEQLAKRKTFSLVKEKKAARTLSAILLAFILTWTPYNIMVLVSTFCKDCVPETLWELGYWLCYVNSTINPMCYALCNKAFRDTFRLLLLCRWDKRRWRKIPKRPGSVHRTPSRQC
Kind of experiment: Alphascreen Surefire phospho-ERK1/2 functional assay, M1. Format: cell-based. The conditions noted are these: for EC50: CHO cells stably expressing human M1, phospho-ERK1/2, * = variable results, read-out: pEC50 M1 (converted); for Emax: CHO, read-out: % Emax cf. ACh, M1, CHO cells stably expressing human M1, relative to ACh. A general note: Alpha assays give light when donor and acceptor beads are brought close together.

Experiment [2] addresses T2, human muscarinic M2 receptor (Homo sapiens, UniProt P08172).
T2 sequence (P08172 1-466): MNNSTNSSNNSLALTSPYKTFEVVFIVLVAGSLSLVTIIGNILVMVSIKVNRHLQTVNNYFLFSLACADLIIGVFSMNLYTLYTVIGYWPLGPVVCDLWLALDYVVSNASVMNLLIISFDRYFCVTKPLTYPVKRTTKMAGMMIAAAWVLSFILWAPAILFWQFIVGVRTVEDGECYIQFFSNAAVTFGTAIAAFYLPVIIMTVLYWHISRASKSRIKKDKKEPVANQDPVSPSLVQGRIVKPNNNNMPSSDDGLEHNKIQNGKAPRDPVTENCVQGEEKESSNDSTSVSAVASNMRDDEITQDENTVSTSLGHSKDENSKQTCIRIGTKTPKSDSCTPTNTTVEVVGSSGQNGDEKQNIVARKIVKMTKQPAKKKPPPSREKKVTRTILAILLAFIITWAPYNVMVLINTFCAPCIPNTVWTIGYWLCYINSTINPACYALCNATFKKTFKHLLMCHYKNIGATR
Kind of experiment: Alphascreen Surefire phospho-ERK1/2 functional assay, M2. The note with it: for Emax: CHO, read-out: % Emax cf. ACh, M2, CHO cells stably expressing human M2, relative to ACh.

In experiment [3] the target is human muscarinic M3 receptor (Homo sapiens, UniProt P20309). Kind of experiment: Alphascreen Surefire phospho-ERK1/2 functional assay, M3. The note with it: for Emax: CHO, read-out: % Emax cf. ACh, M3, CHO cells stably expressing human M3, relative to ACh; for EC50: pEC50 M3, CHO cells stably expressing human M3, phospho-ERK1/2, * = variable results.
Sequence of human muscarinic M3 receptor (P20309 whole entry): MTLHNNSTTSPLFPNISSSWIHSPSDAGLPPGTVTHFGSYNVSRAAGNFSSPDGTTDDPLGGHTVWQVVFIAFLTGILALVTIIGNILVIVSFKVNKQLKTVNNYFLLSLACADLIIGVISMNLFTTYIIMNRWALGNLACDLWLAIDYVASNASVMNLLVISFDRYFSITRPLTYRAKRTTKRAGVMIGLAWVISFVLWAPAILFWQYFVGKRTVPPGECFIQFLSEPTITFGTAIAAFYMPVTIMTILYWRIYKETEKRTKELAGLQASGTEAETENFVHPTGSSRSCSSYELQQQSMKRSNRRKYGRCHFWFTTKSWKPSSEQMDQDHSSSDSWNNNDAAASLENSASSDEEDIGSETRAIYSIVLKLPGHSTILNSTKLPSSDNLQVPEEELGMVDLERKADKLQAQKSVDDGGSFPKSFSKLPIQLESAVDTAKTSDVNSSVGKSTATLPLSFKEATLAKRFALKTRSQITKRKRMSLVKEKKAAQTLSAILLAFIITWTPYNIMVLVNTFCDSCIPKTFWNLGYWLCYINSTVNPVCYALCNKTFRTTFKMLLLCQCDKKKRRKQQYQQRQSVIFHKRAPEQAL
The target in experiment [4] is T3, human muscarinic M4 receptor (Homo sapiens, UniProt P08173).
T3 construct: expressed in transfected cells
T3 sequence (P08173 1-479): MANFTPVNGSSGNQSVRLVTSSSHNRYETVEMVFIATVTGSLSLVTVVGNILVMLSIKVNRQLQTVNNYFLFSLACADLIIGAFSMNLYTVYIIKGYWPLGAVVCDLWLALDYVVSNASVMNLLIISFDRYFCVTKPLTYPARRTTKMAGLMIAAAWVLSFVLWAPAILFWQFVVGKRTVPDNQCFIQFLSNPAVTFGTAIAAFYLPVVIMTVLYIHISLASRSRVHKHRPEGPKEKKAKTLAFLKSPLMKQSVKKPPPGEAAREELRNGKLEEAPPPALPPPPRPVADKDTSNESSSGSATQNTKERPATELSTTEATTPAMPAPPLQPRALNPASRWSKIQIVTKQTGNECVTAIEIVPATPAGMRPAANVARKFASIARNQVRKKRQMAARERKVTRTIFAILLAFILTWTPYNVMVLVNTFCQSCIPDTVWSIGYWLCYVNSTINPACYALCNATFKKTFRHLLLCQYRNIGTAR
The experiment is described as follows: Alphascreen Surefire phospho-ERK1/2 functional assay, M4. The note with it: for EC50: CHO cells stably expressing human M4, phospho-ERK1/2, * = variable results, read-out: pEC50 M4 (converted); for Emax: CHO, read-out: % Emax cf. ACh, M4, CHO cells stably expressing human M4, relative to ACh. Format: cell-based.
Method: CHO cells stably expressing the human muscarinic M1, M2, M3 or M4 receptor were plated (25K/well) onto 96-well tissue culture plates in MEM-alpha+10% dialysed FBS. Once adhered, cells were serum-starved overnight. Agonist stimulation was performed by the addition of 5 μL agonist to the cells for 5 min (37° C.). Media was removed and 50 μL of lysis buffer added. After 15 min, a 4 μL sample was transferred to 384-well plate and 7 μL of detection mixture added. Plates were incubated for 2 h with gentle agitation in the dark and then read on a PHERAstar plate reader.
pEC50 and Emax figures were calculated from the resulting data for each receptor subtype.

The record followed here is patent US9926297B2, “Bicyclic AZA compounds as muscarinic M1 receptor and/or M4 receptor agonists” (Heptares Therapeutics Limited, priority 2014, dated 2018).

Consider `CNC(=O)N1CCC[C@H]1C1CCN(C2CC3(CCN(C(=O)OC)C3)C2)CC1` (single isomer, unassigned) [2-15 Isomer 2], for which the EC50 was 398 nM in experiment [1], greater than 20000 nM in experiment [2], greater than 20000 nM in experiment [3] and 15.8 nM in experiment [4]. In addition, the Emax (in general, the maximal effect, on the per cent scale that the assay sets) in experiment [1] came to 72%; in experiment [2], 9%; in experiment [3], 9%; in experiment [4], 111%.

In the case of `CCOC(=O)N1CCC2(CC(N3CCC(C4CCCN4C(=O)NC)CC3)C2)C1` (single isomer, unassigned) [2-16 Isomer 2, ethyl 2-{4-[1-(methylcarbamoyl)pyrrolidin-2-yl]piperidin-1-yl}-6-azaspiro[3.4]octane-6-carboxylate], the EC50 in experiment [1] is 251 nM; in experiment [2], greater than 20000 nM; in experiment [3] it was greater than 20000 nM; in experiment [4] it was 6.31 nM. Also, the Emax in experiment [1] is 41%; in experiment [2], 53%; in experiment [3], 7%; in experiment [4] it was 114%.

As to `CCOC(=O)N1CCC2(CC(N3CCC([C@@H]4CCCN4C(=O)NC)CC3)C2)C1` (single isomer, unassigned) [2-17 Isomer 2], the EC50 in experiment [1] was 200 nM; in experiment [2], greater than 20000 nM; in experiment [3], greater than 20000 nM; in experiment [4] it was 3.16 nM. For the same compound, the maximum response (Emax) in experiment [1] was found to be 72%; in experiment [2], 5%; in experiment [3], 4%; in experiment [4] it was 116%.

Regarding `CCOC(=O)N1CCC2(CC(N3CCC([C@H]4CCCN4C(=O)NC)CC3)C2)C1` (single isomer, unassigned) [2-18 Isomer 2], the EC50 in experiment [1] was greater than 20000 nM; in experiment [2] it was greater than 20000 nM; in experiment [3], greater than 20000 nM; in experiment [4], 79.4 nM. The Emax was 8% in experiment [1], 1% in experiment [2], 4% in experiment [3] and 56% in experiment [4].

As to `CCNC(=O)N1CCCC1C1CCN(C2CC3(CCN(C(=O)OCC)C3)C2)CC1` (single isomer, unassigned) [2-19 Isomer 2, ethyl 2-{4-[1-(ethylcarbamoyl)pyrrolidin-2-yl]piperidin-1-yl}-6-azaspiro[3.4]octane-6-carboxylate], the EC50 in experiment [1] was 631 nM; in experiment [2], greater than 20000 nM; in experiment [3], greater than 20000 nM; in experiment [4], 7.94 nM. The Emax came to 44% in experiment [1], 3% in experiment [2], 10% in experiment [3] and 113% in experiment [4].

`CCOC(=O)N1CCC2(CC(N3CCC(C4CCCN4C(=O)N(C)C)CC3)C2)C1` (single isomer, unassigned) [2-20 Isomer 2, ethyl 2-{4-[1-(dimethylcarbamoyl)pyrrolidin-2-yl]piperidin-1-yl}-6-azaspiro[3.4]octane-6-carboxylate]: the EC50 in experiment [1] is greater than 20000 nM; in experiment [2], greater than 20000 nM; in experiment [3], greater than 20000 nM; in experiment [4], 31.6 nM. The Emax in experiment [1] was 24%; in experiment [2] it was 1%; in experiment [3], 6%; in experiment [4] it was 106%.

Consider `CCOC(=O)N1CCC2(CC(N3CCC([C@@H]4CCCN4C(=O)N(C)C)CC3)C2)C1` (single isomer, unassigned) [2-21 Isomer 2], for which the EC50 in experiment [1] is 631 nM; in experiment [2], greater than 20000 nM; in experiment [3] it was greater than 20000 nM; in experiment [4], 7.94 nM. Further, the maximum response (Emax) in experiment [1] was determined as 46%; in experiment [2], 4%; in experiment [3], 2%; in experiment [4], 113%.

Regarding `CCOC(=O)N1CCC2(CC(N3CCC(C4CCCN4C(=O)CNC)CC3)C2)C1` (single isomer, unassigned) [2-23 Isomer 2, ethyl 2-{4-[1-(N-methylglycyl)pyrrolidin-2-yl]piperidin-1-yl}-6-azaspiro[3.4]octane-6-carboxylate], the EC50 in experiment [1] is 1260 nM; in experiment [2], greater than 20000 nM; in experiment [3] it was greater than 20000 nM; in experiment [4] it was 50.1 nM. The Emax worked out at 65% in experiment [1], 3% in experiment [2], 9% in experiment [3] and 104% in experiment [4].

Take `CCOC(=O)N1CCC2(CC(N3CCC(C4CCCN4C(=O)NOC)CC3)C2)C1` (single isomer, unassigned) [2-24 Isomer 2, ethyl 2-{4-[1-(methoxycarbamoyl)pyrrolidin-2-yl]piperidin-1-yl}-6-azaspiro[3.4]octane-6-carboxylate]: the EC50 was 631 nM in experiment [1], greater than 20000 nM in experiment [2], greater than 20000 nM in experiment [3] and 20 nM in experiment [4]. In addition, the Emax in experiment [1] was determined as 37%; in experiment [2], 5%; in experiment [3] it was 9%; in experiment [4], 121%.

For `CCOC(=O)N1CCC2(CC(N3CCC([C@@H]4CCCN4C(=O)NC(C)C)CC3)C2)C1` (single isomer, unassigned) [2-25 Isomer 2], the EC50 is 631 nM in experiment [1], greater than 20000 nM in experiment [2], greater than 20000 nM in experiment [3] and 10 nM in experiment [4]. The Emax in experiment [1] stood at 74%; in experiment [2] it was 6%; in experiment [3] it was 2%; in experiment [4] it was 86%.

For `CCOC(=O)N1CCC2(CC(N3CCC([C@@H]4CCCN4C(=O)NCC(F)(F)F)CC3)C2)C1` (single isomer, unassigned) [2-26 Isomer 2], the EC50 in experiment [1] is 12.6 nM; in experiment [2] it was greater than 20000 nM; in experiment [3], greater than 20000 nM; in experiment [4] it was 6.31 nM. In addition, the Emax in experiment [1] was determined as 92%; in experiment [2] it was 66%; in experiment [3] it was 4%; in experiment [4], 99%.

Take `CCOC(=O)N1CCC2(CC(N3CCC([C@@H]4CCCN4C(=O)N4CCC4)CC3)C2)C1` (single isomer, unassigned) [2-27 Isomer 2]: the EC50 in experiment [1] is 31.6 nM; in experiment [2], greater than 20000 nM; in experiment [3], greater than 20000 nM; in experiment [4], 10 nM. In addition, the Emax in experiment [1] amounted to 24%; in experiment [2], 0.4%; in experiment [3] it was 15%; in experiment [4] it was 73%.

As for `CCOC(=O)N1CCC2(CC(N3CCC([C@@H]4CCCN4C(=O)N4CCOCC4)CC3)C2)C1` (single isomer, unassigned) [2-28 Isomer 2], the EC50 was greater than 20000 nM in experiment [1], greater than 20000 nM in experiment [2], greater than 20000 nM in experiment [3] and 25.1 nM in experiment [4]. Also, the maximum response (Emax) came out at 7% in experiment [1], 3% in experiment [2], 5% in experiment [3] and 63% in experiment [4].

As to `CCOC(=O)N1CCC2(CC(N3CCC([C@@H]4CCCN4C(=O)NC4CC4)CC3)C2)C1` (single isomer, unassigned) [2-29 Isomer 2], the EC50 is 501 nM in experiment [1], greater than 20000 nM in experiment [2], greater than 20000 nM in experiment [3] and 15.8 nM in experiment [4]. Further, the maximal effect (Emax) turned out to be 60% in experiment [1], 5% in experiment [2], 13% in experiment [3] and 110% in experiment [4].
